From patent US7199114B2, “Triterpene quaternary salts as biologically active surfactants” (The Regents of the University of Minnesota, priority 2002, dated 2007)

How the values were obtained:
[1] = test system: Staphylococcus aureus Methicillin-sensitive; test: Anti-bacterial activity, broth culture MIC; format: cell-based; details: Staphylococcus aureus, read-out: Approximate Minimum Inhibitory Concentration, MIC
Method: (§1) Several uncharged or negatively charged triterpenes, and several positively charged triterpenes of the invention were tested for anti-bacterial activity against antibiotic-susceptible and antibiotic resistant strains of four types of bacteria of concern in clinics and hospitals. The triterpenes weres tested in broth culture in triplicate for ability to inhibit bacterial growth. The compounds tested are those listed below.
(§2) The lowest concentration which inhibits bacterial growth is referred to as the minimum inhibitory concentration (MIC), the standard measurement of anti-microbial activity.

[2] = test system: Enterococcus faecium Vancomycin-sensitive (first listed); test: Anti-bacterial activity, broth culture MIC; format: cell-based; details: Enterococcus faecium, read-out: Approximate Minimum Inhibitory Concentration, MIC
Method: as §1, §2

[3] = test system: Eschericia coli Ampicillin-resistant; test: Anti-bacterial activity, broth culture MIC; format: cell-based; details: read-out: Approximate Minimum Inhibitory Concentration, MIC
Method: as §1, §2

[4] = test system: Staphylococcus aureus Methicillin-resistant; test: Anti-bacterial activity, broth culture MIC; format: cell-based; details: Staphylococcus aureus, read-out: Approximate Minimum Inhibitory Concentration, MIC
Method: as §1, §2

[5] = test system: Enterococcus faecium Vancomycin-sensitive (second listed); test: Anti-bacterial activity, broth culture MIC; format: cell-based; details: Enterococcus faecium, read-out: Approximate Minimum Inhibitory Concentration, MIC
Method: as §1, §2

[6] = Antifungal treatment on turf grass plots (Example 84), turf quality; format: in vivo, creeping bentgrass, cv. Pennlinks; details: Table 3 experiment, 1 to 9 scale, 9 perfect, 17.8 g/1000 sq. ft. (Daconil Ultrex 3.2 oz./1000 sq. ft.)
Method: (§3) Plots of creeping bentgrass, cv. “Pennlinks,” were treated with water based sprays of the test compounds. Sprays were delivered by CO2-charged sprayer to deliver the equivalent of 2 gallons of spray per 1000 sq. ft of plot area. Plots were 15 sq. ft. each, and treatments were mixed to apply material to 75 sq. ft (5 replicates), although only 4 replicates were treated. The quaternary salts of triterpenes were applied at 17.8 g/1000 sq. ft. for 14 days. Daconil Ultrex® was applied at 3.2 oz./1000 sq. ft. for 14 days. The experiment used a randomized complete block design, with 4 replicates per treatment. Disease pressure was high. Pennlinks […] is moderately to highly susceptible to both dollar spot and brown patch. For brown patch, caused by Rhozoctonia sofani. a visual estimate of the percent of the plot area affected was recorded. Turf quality was estimated on a 1 to 9 scale, with 1 being worst and 9 being perfect. A rating of 6 is considered acceptable.

[7] = test system: dollar spot; test: Antifungal treatment on turf grass plots (Example 84), dollar spot count; format: in vivo; details: Table 3 experiment, 17.8 g/1000 sq. ft. (Daconil Ultrex 3.2 oz./1000 sq. ft.)
Method: as §3

[8] = test system: brown patch, caused by Rhozoctonia sofani; test: Antifungal treatment on turf grass plots (Example 84), brown patch; format: in vivo; details: Table 3 experiment, 17.8 g/1000 sq. ft. (Daconil Ultrex 3.2 oz./1000 sq. ft.)
Method: as §3

[9] = test system: Escherichia coli Ampicillin sensitive; test: Anti-bacterial activity, broth culture MIC; format: cell-based; details: read-out: Approximate Minimum Inhibitory Concentration, MIC
Method: as §1, §2

[10] = test system: Pseudomonas aeruginosa Multi-drug resistant; test: Anti-bacterial activity, broth culture MIC; format: cell-based; details: read-out: Approximate Minimum Inhibitory Concentration, MIC
Method: as §1, §2

[11] = test system: Pseudomonas aeruginosa Antibiotic sensitive; test: Anti-bacterial activity, broth culture MIC; format: cell-based; details: read-out: Approximate Minimum Inhibitory Concentration, MIC
Method: as §1, §2

[12] = test system: dollar spot; test: Bentgrass dollar spot trial at Rutgers University, lesion count; format: in vivo; details: text summary of Table 7
Method: Similar experiments were performed at Rutgers University to test for treatment of bentgrass infected with dollar spot. Test compounds were mixed in aqueous solution with the adjuvant Latron B-1956® (Rohm and Haas) and applied to the grass at a rate of 4.18 fluid ounces per 1000 square feet and an interval of every 7 days. The number of lesions per plot were then counted and averaged over the replicate plots. Treatment with fertilizers or other fungicides were also performed.

[13] = background statement; cited from earlier work

SMILES	MIC [1]	MIC [2]	MIC [3]	MIC [4]	MIC [5]	further results
C=C(C)[C@@H]1CCC2(COC(=O)C[n+]3cccc(CNC(N)=O)c3)CC[C@]3(C)C(CCC4[C@@]5(C)CC[C@H](OC(=O)C[n+]6cccc(CNC(N)=O)c6)C(C)(C)C5CC[C@]43C)C12.Cl.Cl (some centres unmarked)						melting point: 245 to 247 °C (dec.)
Br.C=C(C[n+]1ccc(N(C)C)cc1)[C@@H]1CC[C@]2(COC(C)=O)CC[C@]3(C)C(CCC4[C@@]5(C)CC[C@H](OC(C)=O)C(C)(C)C5CC[C@]43C)C12 (some centres unmarked) [Compound 12, 1-(3,28-(diacetoxy)lup-20(29)-ene-30-yl)4-(dimethylamino)pyridinium bromide]	2 µg/mL	2 µg/mL	50 µg/mL	5 µg/mL	2 µg/mL	
C=C(C[N+]12CCN(CC1)CC2)[C@@H]1CC[C@]2(COC(C)=O)CC[C@]3(C)C(CCC4[C@@]5(C)CC[C@H](OC(C)=O)C(C)(C)C5CC[C@]43C)C12.[Br-] (some centres unmarked) [Compound 18, 1-[3,28-(diacetoxy)lup-20(29)-ene-30-yl]-1,4-diazabicyclo[2.2.2]octane bromide]	5 µg/mL	5 µg/mL		5 µg/mL	5 µg/mL	Turf quality ([6]; Jul. 2, 2001): 4.63; Turf quality ([6]; Jul. 9, 2001): 5.50; Turf quality ([6]; Jun. 25, 2001): 4.63; Dollar Spot # of spots per plot ([7]; Jul. 2, 2001): 20.8 spots per plot; Dollar Spot # of spots per plot ([7]; Jul. 9, 2001): 14.3 spots per plot; Dollar Spot # of spots per plot ([7]; Jul. 16, 2001): 1.8 spots per plot; Dollar Spot # of spots per plot ([7]; Jun. 25, 2001): 16.8 spots per plot; Brown Patch % of plot infected ([8]; Jul. 2, 2001): 37.5%; Brown Patch % of plot infected ([8]; Jul. 9, 2001): significantly suppress brown patch; Brown Patch % of plot infected ([8]; Jul. 9, 2001, listed as Comp. 18): 12.0%; Brown Patch % of plot infected ([8]; Jul. 16, 2001): 6.3%; Brown Patch % of plot infected ([8]; Jun. 25, 2001): 14.8%
Br.Br.C=C(C)[C@@H]1CC[C@]2(COC(=O)CCC[N+]34CCN(CC3)CC4)CC[C@]3(C)C(CCC4[C@@]5(C)CC[C@H](OC(=O)CCC[N+]67CCN(CC6)CC7)C(C)(C)C5CC[C@]43C)C12 (some centres unmarked) [Compound 25, Lup-20(29)-ene-3,28-bis[(N-(1,4-diazabicyclo[2.2.21]octyl)4-butyrate)]dibromide]	2 µg/mL	5 µg/mL	100 µg/mL	2 µg/mL	10 µg/mL	MIC [9]: 50 µg/mL
Br.C=C(C)[C@@H]1CC[C@]2(COC(=O)CCC[n+]3ccc(N(C)C)cc3)CC[C@]3(C)C(CCC4[C@@]5(C)CC[C@H](OC(=O)CCC[n+]6ccc(N(C)C)cc6)C(C)(C)C5CC[C@]43C)C12 (some centres unmarked) [Compound 40, Lup-20(29)-ene3,28-bis [N-(4-dimethylaminopyridinium)4-butyrate] dibromide]	5 µg/mL	2 µg/mL	50 µg/mL	5 µg/mL	5 µg/mL	MIC [10]: 200 µg/mL; MIC [9]: 20 µg/mL; MIC [11]: 200 µg/mL
CCCCCCCCCC[N+](C)(CCCCCCCCCC)CC(=O)O[C@H]1CC[C@@]2(C)C(CC[C@]3(C)C2CC[C@@H]2C4[C@H]5OC[C@@]4(CCC5(C)C)CC[C@]23C)C1(C)C.[Cl-] (stereo partly drawn) [Compound 80, 3β-[(N-methyl-N,N-didecyl)aminoacetyloxy]-19β,28-epoxy-18α-oleanan chloride]						effectiveness against dollar spot [12]: particularly effective
C=C(C)[C@@H]1CC[C@]2(CO)CC[C@]3(C)[C@H](CC[C@@H]4[C@@]5(C)CC[C@H](O)C(C)(C)[C@@H]5CC[C@]43C)[C@@H]12 [betulin]						solubility in water [13]: about 0.15 mg/l
